Data from US8796264B2, “2-piperazin-1-yl-4H-1,3-benzothiazin-4-one derivatives and their use for the treatment of mammalian infections” (Ecole Polytechnique Federale de Lausanne (EPFL), priority 2010, dated 2014).
≈ marks a conversion by molar mass, not a printed value.

Key:
M. tuberculosis H37Rv = assay: In vitro inhibitory activity, resazurin reduction assay (MIC99); assay type: cell-based, Mycobacterium tuberculosis; details: for MIC: Mycobacterium tuberculosis, H37RV, resazurin reduction assay (MIC99), read-out: typical MIC values, M. tuberculosis H37Rv
M. smegmatis = assay: as above; assay type: cell-based, Mycobacterium smegmatis; details: Mycolicibacterium smegmatis, read-out: typical MIC values, M. smegmatis
[1] = system: Corynebacterium glutamicum ATCC13032; assay: In vitro inhibitory activity against actinobacteria (MIC); assay type: cell-based; details: read-out: typical MIC values, Corynebacterium glutamicum ATCC13032
[2] = Acute toxicity after administration per os; details: mouse, in vivo, mice
Description: The compounds of the invention are non-toxic after administration per os of doses ranging up to 2000 mg/kg. The compound was well tolerated by animals in the first 24 hours after introduction. […] There were no cases of animal death. LD50 for compounds (2) and (18) is >2000 mg/kg.

[3] = system: M. tuberculosis strain H37Rv; assay: In vivo efficacy in the chronic murine TB model; parameters: species or system mice; details: 50 mg/kg by gavage once daily, six-times/week, 4 weeks
[4] = system: M. tuberculosis strain H37Rv; assay: In vivo efficacy in the acute murine TB model; parameters: species or system mice; details: for Log of CFU lungs: 4 weeks treatment, intragastric 5 times a week; for Log of CFU lungs / Medium longevity (days) M ± SEM: compounds and BTZ043 50 mg/kg, isoniazid 25 mg/kg; for Result of treatment, macroscopic condition of the lungs: treatment for prescribed time
[5] = Chemical stability in simulated gastric fluid; assay type: physicochemical; details: 5 μM, after 60 minutes
in vitro = details: human, plasma
Description: (§1) Next, PBTZ169 and BTZ043 were incubated at a concentration of 1 μg/mL with 0.1 mg of human or mouse liver microsomes (Invitrogen) in order to measure their intrinsic clearance. The relative amounts of the original compound remaining over time were determined by HPLC.

[6] = Intrinsic clearance in liver microsomes
Description: as §1

A549 cells = assay: Cytotoxicity TC50, resazurin reduction assay; assay type: cell-based, human; details: 72 h incubation
Description: (§2) The selectivity index (SI) of a compound provides a good indication of the potential tolerability of a drug candidate. […] The TC50 of PBTZ169 and BTZ043 were established using two human cell lines, the hepatocyte line HepG2 and the pneumocyte line A549, using the resazurin reduction assay after incubation with varying amounts of the compounds for 72 h. […] The respective MICs were 1 and 2 ng/ml for PBTZ169 and BTZ043. […] In clinical terms, PBTZ169 should be safer and better tolerated than BTZ043.

HepG2 cells = assay: Cytotoxicity TC50, resazurin reduction assay; assay type: cell-based, human; details: 72 h incubation
Description: as §2

[7] = 1 μg/mL with 0.1 mg microsomes, HPLC

Structure (SMILES) | MIC (M. tuberculosis H37Rv) [µg/mL] | MIC (M. smegmatis) [µg/mL] | MIC [1] [µg/mL] | melting point [°C] | other results
O=c1nc(N2CCN(CCCOc3ccc(F)cc3)CC2)sc2c([N+](=O)[O-])cc(C(F)(F)F)cc12 [Compound 18, 2-{4-[3-(4-fluorophenoxy)propyl]piperazin-1-yl}-8-nitro-6-(trifluoromethyl)-4H-1,3-benzothiazin-4-one] | ≤ 0.0019 | ≤ 0.0019 | 0.25 (≈ 0.488 µM) | – | LD50 at 7 days [2]: > 2000 mg/kg
CCC(C)N1CCN(c2nc(=O)c3cc(C(F)(F)F)cc([N+](=O)[O-])c3s2)CC1 (stereo not shown) [Compound 5, 2-(4-sec-butylpiperazin-1-yl)-8-nitro-6-(trifluoromethyl)-4H-1,3-benzothiazin-4-one] | 0.00037 (≈ 0.000889 µM) | ≤ 0.0019 | 0.062 (≈ 0.149 µM) | 127 to 128 | –
O=c1nc(N2CCN(CCC3CCCCC3)CC2)sc2c([N+](=O)[O-])cc(C(F)(F)F)cc12 [Compound 6, 2-[4-(2-cyclohexylethyl)piperazin-1-yl]-8-nitro-6-(trifluoromethyl)-4H-1,3-benzothiazin-4-one] | ≤ 0.00019 | ≤ 0.0019 | 0.125 (≈ 0.266 µM) | 175 to 177 | –
CCCCCCCN1CCN(c2nc(=O)c3cc(C(F)(F)F)cc([N+](=O)[O-])c3s2)CC1 [Compound 8, 2-(4-heptylpiperazin-1-yl)-8-nitro-6-(trifluoromethyl)-4H-1,3-benzothiazin-4-one] | ≤ 0.00019 | ≤ 0.0019 | 0.125 (≈ 0.273 µM) | 125 to 127 | Reduction of the CFU load in the lungs and spleens compared to treatment with BTZ043 [3]: significantly more efficacious
O=c1nc(N2CCN(C3CCCCC3)CC2)sc2c([N+](=O)[O-])cc(C(F)(F)F)cc12 [Compound 1, 2-(4-cyclonexylpiperazin-1-yl)-8-nitro-6-(trifluoromethyl)-4H-1,3-benzothiazin-4-one] | 0.00075 (≈ 0.0017 µM) | ≤ 0.17 | – | 189 to 191 | –
CCCN1CCN(c2nc(=O)c3cc(C(F)(F)F)cc([N+](=O)[O-])c3s2)CC1 [Compound 19, 2-(4-propylpiperazin-1-yl)-8-nitro-6-(tfluoromethyl)-4H-1,3-benzothiazin-4-one] | 0.0037 (≈ 0.00919 µM) | ≤ 0.19 | 0.25 (≈ 0.621 µM) | – | Log of CFU lungs [4]: 4.63; Medium longevity (days) M ± SEM [4]: Alive at sacrifice; Result of treatment, macroscopic condition of the lungs [4]: marked improvement
CCCCN1CCN(c2nc(=O)c3cc(C(F)(F)F)cc([N+](=O)[O-])c3s2)CC1 [Compound 3, 2-(4-butylpiperazin-1-yl)-8-nitro-6-(trifluoromethyl)-4H-1,3-benzothiazin-4-one] | 0.0015 (≈ 0.0036 µM) | ≤ 0.17 | – | 119 to 120 | –
O=c1nc(N2CCN(CCCC3(c4ccc(F)cc4)OCCO3)CC2)sc2c([N+](=O)[O-])cc(C(F)(F)F)cc12 [Compound 17, 2-(4-{3-[2-(4-fluorophenyl)-1,3-dioxolan-2-yl]propyl}piperazin-1-yl)-8-nitro-6-(trifluoromethyl)-4H-1,3-benzothiazin-4-one] | 0.0375 (≈ 0.066 µM) | 0.00375 (≈ 0.0066 µM) | 0.25 (≈ 0.44 µM) | 152 to 154 | –
O=c1nc(N2CCN(CC3CCCCC3)CC2)sc2c([N+](=O)[O-])cc(C(F)(F)F)cc12 [Compound 2, 2-[4-(cyclohexylmethyl)piperazin-1-yl]-8-nitro-6-(trifluoromethyl)-4H-1,3-benzothiazin-4-one] | ≤ 0.00019 | ≤ 0.17 | – | – | MIC used for the selectivity index (M. tuberculosis H37Rv; strain not stated): 0.001 µg/mL; Log of CFU lungs [4]: 4.30; Medium longevity (days) M ± SEM [4]: Alive at sacrifice; Result of treatment, macroscopic condition of the lungs [4]: marked improvement; Reduction of the CFU load in the lungs and spleens compared to treatment with BTZ043 [3]: significantly more efficacious; Compound remained in simulated gastric fluid [5]: 67%; half-life (in vitro): > 1 h; Intrinsic Clearance (Clint), Human liver microsomes [6, 7]: 23.9 μL/min/mg of protein; Intrinsic Clearance (Clint), Mouse liver microsomes [6, 7]: 20.9 μL/min/mg of protein; TC50 against A549 cells (A549 cells): 73.2 µg/mL (≈ 160 µM); TC50 against HepG2 cells (HepG2 cells): 66.7 µg/mL (≈ 146 µM); LD50 at 7 days [2]: > 2000 mg/kg
NNC(=O)c1ccncc1 [Izoniazid, Isoniazid, reference compound] | – | – | – | – | Log of CFU lungs [4]: 4.34; Medium longevity (days) M ± SEM [4]: Alive at sacrifice; Result of treatment, macroscopic condition of the lungs [4]: marked improvement
CCCC(C)N1CCN(c2nc(=O)c3cc(C(F)(F)F)cc([N+](=O)[O-])c3s2)CC1 (stereo not shown) [Compound 7, 2-[4-(1-methylbutyl)piperazin-1-yl]-8-nitro-6-(trifluoromethyl)-4H-1,3-benzothiazin-4-one] | ≤ 0.00019 | ≤ 0.0019 | 0.125 (≈ 0.29 µM) | 132 to 133 | –
O=c1nc(N2CCN(CCOCc3ccccc3)CC2)sc2c([N+](=O)[O-])cc(C(F)(F)F)cc12 [Compound 16, 2-{4-[2-(benzyloxy)ethyl]piperazin-1-yl}-8-nitro-6-(trifluoromethyl)-4H-1,3-benzothiazin-4-one] | 0.019 (≈ 0.0384 µM) | 0.031 (≈ 0.0627 µM) | < 0.5 | 117 to 119 | –
O=c1nc(N2CCN(CCCC3CCCCC3)CC2)sc2c([N+](=O)[O-])cc(Cl)cc12 [Compound 21, 6-chloro-2-[4-(3-cyclohexylpropyl)piperazin-1-yl]-8-nitro-4H-1,3-benzothiazin-4-one] | ≤ 0.0019 | ≤ 0.0019 | 0.062 (≈ 0.137 µM) | 194 to 195 | –
O=c1nc(N2CCN(CCCOc3ccc(F)cc3)CC2)sc2c([N+](=O)[O-])cc(Cl)cc12 [Compound 20, 6-chloro-2-{4-[3-(4-fluorophenoxy)propyl]piperazin-1-yl}-8-nitro-4H-1,3-benzothiazin-4-one] | ≤ 0.0019 | ≤ 0.0019 | 0.0031 (≈ 0.00647 µM) | 192 to 194 | –
COCCCN1CCN(c2nc(=O)c3cc(C(F)(F)F)cc([N+](=O)[O-])c3s2)CC1 [Compound 11, 2-[4-(3-methoxypropyl)piperazin-1-yl]-8-nitro-6-(trifluoromethyl)-4H-1,3-benzothiazin-4-one] | 0.00375 (≈ 0.00867 µM) | 0.031 (≈ 0.0717 µM) | 0.25 (≈ 0.578 µM) | 133 to 134 | –
CC(C)CN1CCN(c2nc(=O)c3cc(C(F)(F)F)cc([N+](=O)[O-])c3s2)CC1 [Compound 4] | ≤ 0.0019 | ≤ 0.0019 | 0.031 (≈ 0.0744 µM) | 150 to 153 | –
O=c1nc(N2CCN(Cc3ccncc3)CC2)sc2c([N+](=O)[O-])cc(C(F)(F)F)cc12 [Compound 9, 8-nitro-2-[4-(pyridin-4-ylmethyl)piperazin-1-yl]-6-(trifluoromethyl)-4H-1,3-benzothiazin-4-one] | 0.015 (≈ 0.0332 µM) | 0.062 (≈ 0.137 µM) | 0.125 (≈ 0.277 µM) | 200 to 202 | –
O=c1nc(N2CCN(CCCC3CCCCC3)CC2)sc2c([N+](=O)[O-])cc(C(F)(F)F)cc12 [Compound 14, 2-[4-(3-cyclohexylpropyl)piperazin-1-yl]-8-nitro-6-(trifluoromethyl)-4H-1,3-benzothiazin-4-one] | ≤ 0.0019 | ≤ 0.0019 | 0.75 (≈ 1.55 µM) | 145 to 147 | –
O=c1nc(N2CCN(C34CC5CC(CC(C5)C3)C4)CC2)sc2c([N+](=O)[O-])cc(C(F)(F)F)cc12 [Compound 15, 2-[4-(1-adamantyl)piperazin-1-yl]-8-nitro-6-(trifluoromethyl)-4H-1,3-benzothiazin-4-one] | 0.015 (≈ 0.0303 µM) | 0.062 (≈ 0.125 µM) | < 0.5 | 236 to 238 | –
CCCCCN1CCN(c2nc(=O)c3cc(C(F)(F)F)cc([N+](=O)[O-])c3s2)CC1 [Compound 12] | 0.00037 (≈ 0.00086 µM) | ≤ 0.0019 | 0.015 (≈ 0.0348 µM) | 133 to 134 | –
NC(=O)N1c2ccccc2C=Cc2ccccc21 [Carbamazepine] | – | – | – | – | Intrinsic Clearance (Clint), Human liver microsomes ([6]; human, microsomes): 0.6 μL/min/mg of protein; Intrinsic Clearance (Clint), Mouse liver microsomes ([6]; mouse, microsomes): 1.1 μL/min/mg of protein
O=c1nc(N2CCN(CCCCOc3ccccc3)CC2)sc2c([N+](=O)[O-])cc(C(F)(F)F)cc12 [Compound 10, 8-nitro-2-[4-(4-phenoxybutyl)piperazin-1-yl]-6-(trifluoromethyl)-4H-1,3-benzothiazin-4-one] | 0.0015 (≈ 0.00295 µM) | ≤ 0.0019 | ≤ 0.0019 | 256 to 258 | –
CCC(CC)N1CCN(c2nc(=O)c3cc(C(F)(F)F)cc([N+](=O)[O-])c3s2)CC1 [Compound 13, 2-[4-(1-ethylpropyl)piperazin-1-yl]-8-nitro-6-(trifluoromethyl)-4H-1,3-benzothiazin-4-one] | 0.00037 (≈ 0.00086 µM) | ≤ 0.0019 | ≤ 0.0019 | 152 to 153 | –
